According to ChEMBL document CHEMBL4507291 (2021):

Tests used:
[1] = biological target: T1, Aurora kinase A (Homo sapiens) (UniProt O14965); assay: AURKA (Aurora A) Kinase screen; conditions: Compound concentration 1.0 uM
T1 sequence (whole entry): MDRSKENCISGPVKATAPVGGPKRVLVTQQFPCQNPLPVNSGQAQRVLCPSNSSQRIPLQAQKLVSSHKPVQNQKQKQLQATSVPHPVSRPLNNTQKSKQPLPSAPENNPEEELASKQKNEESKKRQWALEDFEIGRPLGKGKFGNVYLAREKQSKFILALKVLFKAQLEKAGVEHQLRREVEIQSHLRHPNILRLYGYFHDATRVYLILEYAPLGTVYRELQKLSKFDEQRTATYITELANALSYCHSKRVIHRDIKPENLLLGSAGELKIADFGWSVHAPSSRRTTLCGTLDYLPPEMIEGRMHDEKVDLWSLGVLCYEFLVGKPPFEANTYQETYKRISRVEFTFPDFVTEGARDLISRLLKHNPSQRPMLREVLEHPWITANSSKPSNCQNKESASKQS

[2] = biological target: CDK8/Cyclin C (Homo sapiens) (UniProt P49336+P24863); assay: CDK8/cyclin C Kinase screen; format: protein-complex assay; conditions: Compound concentration 1.0 uM
[3] = biological target: CDK9/Cyclin K (Homo sapiens) (UniProt P50750+O75909); assay: CDK9/cyclin K Kinase screen; format: protein-complex assay; conditions: Compound concentration 1.0 uM
[4] = biological target: Tyrosine-protein kinase JAK2 (Homo sapiens) (UniProt O60674); assay: JAK2 JH1 JH2 Kinase screen; conditions: Compound concentration 1.0 uM
Sequence of Tyrosine-protein kinase JAK2 (Homo sapiens) (O60674 whole entry): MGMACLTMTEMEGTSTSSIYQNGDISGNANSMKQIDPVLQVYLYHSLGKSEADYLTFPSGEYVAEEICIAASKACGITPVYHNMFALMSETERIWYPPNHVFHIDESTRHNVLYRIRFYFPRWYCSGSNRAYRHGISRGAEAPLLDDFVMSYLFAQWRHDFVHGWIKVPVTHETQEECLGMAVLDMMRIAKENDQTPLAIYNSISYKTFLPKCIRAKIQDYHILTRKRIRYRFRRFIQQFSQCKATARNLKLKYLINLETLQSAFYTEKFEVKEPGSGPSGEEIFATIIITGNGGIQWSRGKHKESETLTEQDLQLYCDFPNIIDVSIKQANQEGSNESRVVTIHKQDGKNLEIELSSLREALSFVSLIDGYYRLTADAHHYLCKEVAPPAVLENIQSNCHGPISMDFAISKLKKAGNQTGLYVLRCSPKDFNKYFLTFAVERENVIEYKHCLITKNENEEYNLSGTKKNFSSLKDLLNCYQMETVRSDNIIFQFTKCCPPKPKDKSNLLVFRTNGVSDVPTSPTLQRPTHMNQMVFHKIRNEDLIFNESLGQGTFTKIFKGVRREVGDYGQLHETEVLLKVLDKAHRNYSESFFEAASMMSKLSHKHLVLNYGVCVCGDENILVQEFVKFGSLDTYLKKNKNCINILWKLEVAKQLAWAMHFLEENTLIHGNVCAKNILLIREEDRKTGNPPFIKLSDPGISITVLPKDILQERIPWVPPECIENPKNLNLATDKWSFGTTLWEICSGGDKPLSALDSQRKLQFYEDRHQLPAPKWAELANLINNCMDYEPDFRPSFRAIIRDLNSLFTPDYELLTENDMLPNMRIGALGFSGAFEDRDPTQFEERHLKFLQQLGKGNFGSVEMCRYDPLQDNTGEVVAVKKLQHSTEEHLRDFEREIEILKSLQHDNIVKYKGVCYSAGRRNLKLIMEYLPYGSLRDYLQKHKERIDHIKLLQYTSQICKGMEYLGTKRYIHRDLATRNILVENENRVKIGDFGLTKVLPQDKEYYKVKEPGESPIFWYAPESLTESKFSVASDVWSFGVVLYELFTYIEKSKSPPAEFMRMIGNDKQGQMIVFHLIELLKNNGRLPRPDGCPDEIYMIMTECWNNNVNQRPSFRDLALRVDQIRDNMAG

[5] = biological target: Tyrosine-protein kinase Lyn (Homo sapiens) (UniProt P07948); assay: LYN A Kinase screen; conditions: Compound concentration 1.0 uM
Sequence of Tyrosine-protein kinase Lyn (Homo sapiens) (P07948 2-512 limits assumed): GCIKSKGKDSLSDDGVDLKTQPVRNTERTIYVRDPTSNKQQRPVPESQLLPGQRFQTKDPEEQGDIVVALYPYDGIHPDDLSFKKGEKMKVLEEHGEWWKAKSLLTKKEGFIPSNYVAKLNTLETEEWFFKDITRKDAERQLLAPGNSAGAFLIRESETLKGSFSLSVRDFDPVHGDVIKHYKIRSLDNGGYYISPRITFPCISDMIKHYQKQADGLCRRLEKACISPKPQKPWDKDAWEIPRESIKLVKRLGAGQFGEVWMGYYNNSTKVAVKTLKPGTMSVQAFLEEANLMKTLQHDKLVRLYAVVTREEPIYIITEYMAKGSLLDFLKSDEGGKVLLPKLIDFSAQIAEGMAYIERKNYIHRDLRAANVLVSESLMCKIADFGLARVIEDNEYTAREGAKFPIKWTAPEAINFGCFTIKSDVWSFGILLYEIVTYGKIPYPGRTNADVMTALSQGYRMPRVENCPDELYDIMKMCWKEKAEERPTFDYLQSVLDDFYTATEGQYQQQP

[6] = biological target: T2, Mitogen-activated protein kinase kinase kinase 5 (Homo sapiens) (UniProt Q99683); assay: MAP3K5 (ASK1) Kinase screen; conditions: Compound concentration 1.0 uM
T2 sequence (whole entry): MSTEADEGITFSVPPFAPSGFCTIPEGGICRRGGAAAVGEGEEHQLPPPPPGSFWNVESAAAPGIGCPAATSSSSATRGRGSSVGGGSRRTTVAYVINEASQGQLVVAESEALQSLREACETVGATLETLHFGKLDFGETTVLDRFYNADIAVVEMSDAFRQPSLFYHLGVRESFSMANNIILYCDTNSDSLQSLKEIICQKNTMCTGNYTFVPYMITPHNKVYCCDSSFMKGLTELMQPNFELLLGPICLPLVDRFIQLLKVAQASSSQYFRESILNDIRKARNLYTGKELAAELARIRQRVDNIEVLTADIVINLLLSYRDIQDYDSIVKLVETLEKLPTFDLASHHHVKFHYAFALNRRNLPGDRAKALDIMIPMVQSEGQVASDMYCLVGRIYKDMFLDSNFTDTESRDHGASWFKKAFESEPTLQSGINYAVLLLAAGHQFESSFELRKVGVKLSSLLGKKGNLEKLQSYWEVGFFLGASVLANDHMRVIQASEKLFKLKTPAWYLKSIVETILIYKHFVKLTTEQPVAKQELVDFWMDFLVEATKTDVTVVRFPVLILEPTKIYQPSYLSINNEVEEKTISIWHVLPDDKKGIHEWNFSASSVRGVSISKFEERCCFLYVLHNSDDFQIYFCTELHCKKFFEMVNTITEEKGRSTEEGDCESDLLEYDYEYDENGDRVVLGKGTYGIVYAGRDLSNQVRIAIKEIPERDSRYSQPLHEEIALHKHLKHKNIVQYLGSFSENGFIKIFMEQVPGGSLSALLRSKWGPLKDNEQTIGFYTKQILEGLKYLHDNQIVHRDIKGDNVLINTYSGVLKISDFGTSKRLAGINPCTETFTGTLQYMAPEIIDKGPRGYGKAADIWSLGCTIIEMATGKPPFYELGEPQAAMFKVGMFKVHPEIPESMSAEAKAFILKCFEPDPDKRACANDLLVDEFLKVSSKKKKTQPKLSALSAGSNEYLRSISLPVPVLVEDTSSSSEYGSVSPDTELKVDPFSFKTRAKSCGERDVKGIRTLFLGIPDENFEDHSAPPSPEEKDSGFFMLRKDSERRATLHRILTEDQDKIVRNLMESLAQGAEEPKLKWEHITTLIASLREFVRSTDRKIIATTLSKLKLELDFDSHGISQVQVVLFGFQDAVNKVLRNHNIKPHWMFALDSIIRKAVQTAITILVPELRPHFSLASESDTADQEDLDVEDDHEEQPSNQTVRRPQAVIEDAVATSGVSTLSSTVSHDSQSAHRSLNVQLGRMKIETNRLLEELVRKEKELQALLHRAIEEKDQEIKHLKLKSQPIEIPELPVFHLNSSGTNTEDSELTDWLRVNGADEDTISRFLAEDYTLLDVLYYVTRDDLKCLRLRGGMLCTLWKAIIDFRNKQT

[7] = biological target: Serine/threonine-protein kinase PAK 3 (Homo sapiens) (UniProt O75914); assay: PAK3 Kinase screen; conditions: Compound concentration 1.0 uM
Sequence of Serine/threonine-protein kinase PAK 3 (Homo sapiens) (O75914 whole entry, looked up): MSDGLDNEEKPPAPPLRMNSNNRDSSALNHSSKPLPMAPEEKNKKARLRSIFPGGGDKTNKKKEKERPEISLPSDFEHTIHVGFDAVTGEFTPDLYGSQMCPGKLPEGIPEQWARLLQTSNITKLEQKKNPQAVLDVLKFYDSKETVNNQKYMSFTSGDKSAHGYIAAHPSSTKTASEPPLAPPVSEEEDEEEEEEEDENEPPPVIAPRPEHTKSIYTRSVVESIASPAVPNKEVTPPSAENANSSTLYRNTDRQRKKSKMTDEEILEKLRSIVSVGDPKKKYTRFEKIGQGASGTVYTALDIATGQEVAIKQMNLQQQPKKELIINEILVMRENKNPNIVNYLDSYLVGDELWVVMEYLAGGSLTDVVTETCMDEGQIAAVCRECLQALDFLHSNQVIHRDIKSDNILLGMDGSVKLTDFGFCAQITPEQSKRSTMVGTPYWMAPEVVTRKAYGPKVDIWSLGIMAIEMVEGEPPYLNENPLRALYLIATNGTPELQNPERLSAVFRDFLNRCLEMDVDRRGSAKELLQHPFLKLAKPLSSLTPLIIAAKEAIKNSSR

[8] = biological target: Serine/threonine-protein kinase SIK2 (Homo sapiens) (UniProt Q9H0K1); assay: SNF1LK2 Kinase screen; conditions: Compound concentration 1.0 uM
Sequence of Serine/threonine-protein kinase SIK2 (Homo sapiens) (Q9H0K1 whole entry, looked up): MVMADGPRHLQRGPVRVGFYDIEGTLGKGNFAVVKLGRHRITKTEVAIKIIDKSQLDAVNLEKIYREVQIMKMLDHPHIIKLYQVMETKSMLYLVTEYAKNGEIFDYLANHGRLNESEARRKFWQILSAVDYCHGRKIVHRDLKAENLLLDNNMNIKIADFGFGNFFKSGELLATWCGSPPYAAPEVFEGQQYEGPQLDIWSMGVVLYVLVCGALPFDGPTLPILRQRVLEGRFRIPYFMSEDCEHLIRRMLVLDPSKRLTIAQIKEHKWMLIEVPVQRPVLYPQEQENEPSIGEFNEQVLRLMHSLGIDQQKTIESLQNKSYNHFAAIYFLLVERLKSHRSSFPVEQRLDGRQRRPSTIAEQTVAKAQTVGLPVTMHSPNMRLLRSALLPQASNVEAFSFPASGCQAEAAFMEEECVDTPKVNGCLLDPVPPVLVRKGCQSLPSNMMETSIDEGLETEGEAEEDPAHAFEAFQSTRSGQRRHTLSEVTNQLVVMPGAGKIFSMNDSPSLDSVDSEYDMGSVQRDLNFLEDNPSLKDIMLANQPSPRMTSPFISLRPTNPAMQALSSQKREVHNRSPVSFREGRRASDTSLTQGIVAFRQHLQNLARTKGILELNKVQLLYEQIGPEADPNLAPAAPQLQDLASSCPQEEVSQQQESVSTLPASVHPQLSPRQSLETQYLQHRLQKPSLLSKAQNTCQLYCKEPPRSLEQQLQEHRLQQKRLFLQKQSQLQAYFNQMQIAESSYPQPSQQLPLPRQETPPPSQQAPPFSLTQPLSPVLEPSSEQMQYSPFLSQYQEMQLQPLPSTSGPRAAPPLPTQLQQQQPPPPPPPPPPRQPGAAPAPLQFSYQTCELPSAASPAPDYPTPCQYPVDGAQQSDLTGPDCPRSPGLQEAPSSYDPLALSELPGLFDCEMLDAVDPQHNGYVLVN

[9] = biological target: Sphingosine kinase 2 (Homo sapiens) (UniProt Q9NRA0); assay: SPHK2 Kinase screen; conditions: Compound concentration 1.0 uM
Sequence of Sphingosine kinase 2 (Homo sapiens) (Q9NRA0 whole entry): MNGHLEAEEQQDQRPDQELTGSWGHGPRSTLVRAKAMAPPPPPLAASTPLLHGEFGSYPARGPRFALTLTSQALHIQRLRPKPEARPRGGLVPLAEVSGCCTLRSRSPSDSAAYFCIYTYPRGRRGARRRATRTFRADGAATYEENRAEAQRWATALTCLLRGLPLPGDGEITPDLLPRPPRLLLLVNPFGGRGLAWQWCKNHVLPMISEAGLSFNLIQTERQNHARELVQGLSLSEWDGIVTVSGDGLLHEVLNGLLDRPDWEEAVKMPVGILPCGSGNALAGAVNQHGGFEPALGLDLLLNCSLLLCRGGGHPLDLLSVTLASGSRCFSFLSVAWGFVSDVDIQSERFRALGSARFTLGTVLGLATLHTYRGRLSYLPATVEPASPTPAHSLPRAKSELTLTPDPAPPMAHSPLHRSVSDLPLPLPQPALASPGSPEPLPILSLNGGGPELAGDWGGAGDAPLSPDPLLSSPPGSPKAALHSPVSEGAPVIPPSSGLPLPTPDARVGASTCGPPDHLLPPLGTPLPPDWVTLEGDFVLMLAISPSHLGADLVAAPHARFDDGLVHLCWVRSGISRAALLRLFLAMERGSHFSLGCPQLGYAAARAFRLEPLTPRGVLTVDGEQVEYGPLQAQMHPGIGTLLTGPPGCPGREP

[10] = biological target: T3, Serine/threonine-protein kinase TBK1 (Homo sapiens) (UniProt Q9UHD2); assay: TBK1 Kinase screen; conditions: Compound concentration 1.0 uM
T3 sequence (whole entry): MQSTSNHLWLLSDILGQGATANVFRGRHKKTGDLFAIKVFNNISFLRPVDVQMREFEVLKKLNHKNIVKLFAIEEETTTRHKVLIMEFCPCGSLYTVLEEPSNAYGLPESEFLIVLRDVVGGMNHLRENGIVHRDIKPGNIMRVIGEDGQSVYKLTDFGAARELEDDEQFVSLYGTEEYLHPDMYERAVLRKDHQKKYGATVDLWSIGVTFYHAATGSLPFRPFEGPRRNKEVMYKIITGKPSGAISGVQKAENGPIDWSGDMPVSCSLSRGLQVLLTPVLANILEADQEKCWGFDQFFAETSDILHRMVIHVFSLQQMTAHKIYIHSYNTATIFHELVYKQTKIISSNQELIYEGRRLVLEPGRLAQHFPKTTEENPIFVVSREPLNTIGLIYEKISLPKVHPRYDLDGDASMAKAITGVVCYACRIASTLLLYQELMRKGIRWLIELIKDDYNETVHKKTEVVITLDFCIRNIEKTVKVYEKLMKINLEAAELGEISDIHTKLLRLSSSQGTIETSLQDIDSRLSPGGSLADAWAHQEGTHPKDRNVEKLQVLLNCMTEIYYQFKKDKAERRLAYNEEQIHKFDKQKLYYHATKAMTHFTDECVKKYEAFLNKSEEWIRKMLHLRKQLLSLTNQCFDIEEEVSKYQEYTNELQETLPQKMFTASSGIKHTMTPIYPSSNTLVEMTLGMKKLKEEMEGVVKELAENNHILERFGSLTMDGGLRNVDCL

[11] = biological target: Beta-1 adrenergic receptor (Homo sapiens) (UniProt P08588); conditions: Compound concentration 10.0 uM
Sequence of Beta-1 adrenergic receptor (Homo sapiens) (P08588 whole entry, looked up): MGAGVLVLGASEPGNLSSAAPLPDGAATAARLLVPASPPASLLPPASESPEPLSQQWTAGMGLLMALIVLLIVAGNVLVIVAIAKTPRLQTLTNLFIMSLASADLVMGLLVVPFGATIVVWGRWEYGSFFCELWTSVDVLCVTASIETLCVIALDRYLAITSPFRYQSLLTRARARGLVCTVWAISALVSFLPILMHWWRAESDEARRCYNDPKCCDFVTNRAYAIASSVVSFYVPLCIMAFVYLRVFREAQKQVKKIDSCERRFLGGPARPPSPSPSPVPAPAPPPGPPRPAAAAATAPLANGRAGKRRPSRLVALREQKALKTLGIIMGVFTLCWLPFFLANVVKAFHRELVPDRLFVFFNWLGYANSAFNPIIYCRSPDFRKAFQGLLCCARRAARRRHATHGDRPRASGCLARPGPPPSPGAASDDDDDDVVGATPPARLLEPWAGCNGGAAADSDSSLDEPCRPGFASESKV

[12] = biological target: Beta-2 adrenergic receptor (Homo sapiens) (UniProt P07550); conditions: Compound concentration 10.0 uM
Sequence of Beta-2 adrenergic receptor (Homo sapiens) (P07550 whole entry, looked up): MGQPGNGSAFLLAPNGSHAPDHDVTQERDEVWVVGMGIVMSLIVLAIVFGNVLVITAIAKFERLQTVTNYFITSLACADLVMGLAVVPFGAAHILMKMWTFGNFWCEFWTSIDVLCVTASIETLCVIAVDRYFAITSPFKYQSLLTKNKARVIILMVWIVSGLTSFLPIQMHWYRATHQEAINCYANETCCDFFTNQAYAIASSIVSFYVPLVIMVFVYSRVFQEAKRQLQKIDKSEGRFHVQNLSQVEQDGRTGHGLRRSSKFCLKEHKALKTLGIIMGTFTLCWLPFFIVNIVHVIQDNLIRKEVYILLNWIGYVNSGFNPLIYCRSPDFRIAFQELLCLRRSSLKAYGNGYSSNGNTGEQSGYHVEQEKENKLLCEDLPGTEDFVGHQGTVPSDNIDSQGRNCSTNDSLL

[13] = biological target: Kappa-type opioid receptor (Homo sapiens) (UniProt P41145); conditions: Compound concentration 10.0 uM
Sequence of Kappa-type opioid receptor (Homo sapiens) (P41145 whole entry): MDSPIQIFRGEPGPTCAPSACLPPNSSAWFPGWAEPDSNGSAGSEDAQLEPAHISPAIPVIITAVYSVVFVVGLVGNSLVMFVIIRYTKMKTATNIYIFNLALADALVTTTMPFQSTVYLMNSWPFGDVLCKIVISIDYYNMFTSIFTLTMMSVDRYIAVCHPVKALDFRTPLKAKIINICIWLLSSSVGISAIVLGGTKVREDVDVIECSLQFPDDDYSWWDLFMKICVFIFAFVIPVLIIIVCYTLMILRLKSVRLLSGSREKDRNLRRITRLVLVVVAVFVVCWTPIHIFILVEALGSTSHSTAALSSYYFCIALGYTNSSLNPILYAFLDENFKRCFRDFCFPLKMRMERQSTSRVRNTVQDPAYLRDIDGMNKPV

Measured: inhibition

C[C@@H]1CN(c2cc(-c3n[nH]c4ccc(OC5(C)CC5)cc34)ncn2)C[C@H](C)O1 [MLi-2]
inactive: [1] -0.211% | [2] 8.75% | [3] -2.24% | [4] -4.32% | [5] 1.05% | [6] 71.9% | [7] 10.9% | [8] 7.08% | [9] -0.739% | [10] 7.78% | [11] -7% | [12] 16% | [13] 19%
